In patent US20230365592A1 (Agios Pharmaceuticals, Inc., priority 2022, published 2023):

Target: T1, human PAH with the R408W mutation (Homo sapiens, UniProt P00439, R408W)
T1 construct: expressed in transfected cells
T1 sequence (P00439 1-452 R408W): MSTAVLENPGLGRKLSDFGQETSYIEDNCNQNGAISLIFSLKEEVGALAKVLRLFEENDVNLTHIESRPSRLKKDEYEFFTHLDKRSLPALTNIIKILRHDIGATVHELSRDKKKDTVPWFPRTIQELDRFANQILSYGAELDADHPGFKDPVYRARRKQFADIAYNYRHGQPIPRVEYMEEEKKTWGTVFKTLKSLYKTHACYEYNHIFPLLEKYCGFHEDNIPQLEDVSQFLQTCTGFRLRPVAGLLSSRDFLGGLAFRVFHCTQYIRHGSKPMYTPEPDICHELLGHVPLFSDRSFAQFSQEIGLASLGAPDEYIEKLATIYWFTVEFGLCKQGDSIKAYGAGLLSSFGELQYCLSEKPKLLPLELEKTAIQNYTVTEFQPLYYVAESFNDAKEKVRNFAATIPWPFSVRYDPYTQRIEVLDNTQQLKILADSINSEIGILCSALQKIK
Assay: Cell Based Phenylalanine Flux Assay;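 also: after compound treatment, cells received sepiapterin plus isotope-labelled Phenylalanine for 4 hours, then labelled Tyrosine in the medium was quantified, 10-point 2-fold dilution series run in duplicate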
Details: A375 cells expressing R408W PAH; 24 hrs with compound, then 20 µM sepiapterin and 800 µM 13C9,15N-Phenylalanine for 4 hours; 13C-Tyrosine by LC-MS; average where tested multiple times; read-out: AC50

AC50 [µM] | Compound
> 5 | CN(C)Cc1ccc2c(C(=O)N3CCc4[nH]cnc4C3c3cc4cccc(C(F)F)n4n3)cnn2c1 (stereo not drawn)
1 to 5 | CN(C)Cc1ccc2c(C(=O)N3CCc4[nH]cnc4C3c3cc4cccc(C(F)(F)F)n4n3)cnn2c1 (stereo not drawn)
1 to 5 | Cc1nc(C(C)O)oc1C(=O)N1CCc2[nH]cnc2C1c1cc2c(F)cccn2n1 (stereo not drawn)
1 to 5 | COCc1ccc2c(C(=O)N3CCc4[nH]cnc4C3c3cc4cccc(C(F)(F)F)n4n3)cnn2c1 (stereo not drawn)
> 5 | CC(C)(O)c1cc(C(=O)N2CCc3[nH]cnc3C2c2cc3ccccn3n2)no1 (stereo not drawn)
> 5 | O=C(Cc1cnn2ccccc12)N1CCc2[nH]cnc2C1c1cc2ccccn2n1 (stereo not drawn)
1 to 5 | CN(C)Cc1ccc2c(C(=O)N3CCc4[nH]cnc4C3c3cc4c(C(F)F)cccn4n3)cnn2c1 (stereo not drawn)
> 5 | Cc1c(C2c3nc[nH]c3CCN2C(=O)c2nnc(-c3ccn(C)n3)o2)nn2ccccc12 (stereo not drawn)
1 to 5 | Cc1cccc2cc(C3c4nc[nH]c4CCN3c3ncccn3)nn12 (stereo not drawn)

Compound | AC50 [µM]
O=C(c1nnc(-c2ccccn2)o1)N1CCc2[nH]cnc2C1c1cc2cc(C(F)(F)F)ccn2n1 (stereo not drawn) | 1 to 5
COc1cccn2nc([C@@H]3c4nc[nH]c4CCN3C(=O)c3cnn4cc(CN(C)C)ccc34)cc12 (single isomer, unassigned) | 1 to 5

Same assay, conditions: A375 cells expressing human PAH R408W; 24 hrs compound incubation; 13C-Tyrosine by LC-MS; average where tested multiple times; read-out: AC50

AC50 [µM] | Compound
< 0.5 | FC(F)(F)c1ccc(N2CCc3[nH]cnc3[C@H]2c2cc3c(C4CC4)cccn3n2)nc1 [Example 2170, (S)-4-(4-cyclopropylpyrazolo[1,5-a]pyridin-2-yl)-5-(5-(trifluoromethyl)pyridin-2-yl)-4,5,6,7-tetrahydro-1H-imidazo[4,5-c]pyridine]
0.5 to 1 | Cc1c(-c2ncc(C(=O)N3CCc4[nH]cnc4[C@H]3c3cc4c(C(F)F)cccn4n3)o2)cnn1C [Example 2068, (S)-(4-(4-(difluoromethyl)pyrazolo[1,5-a]pyridin-2-yl)-1,4,6,7-tetrahydro-5H-imidazo[4,5-c]pyridin-5-yl)(2-(1,5-dimethyl-1H-pyrazol-4-yl)oxazol-5-yl)methanone]
1 to 5 | CC(O)c1nc(Cl)c(C(=O)N2CCc3[nH]cnc3[C@H]2c2cc3ccccn3n2)o1 (single isomer, unassigned) [Example 2377]
0.5 to 1 | Cc1cccn2nc([C@@H]3c4nc[nH]c4CCN3C(=O)c3cnc(-c4cnn(C)c4C)o3)cc12 [Example 1962, (S)-(2-(1,5-dimethyl-1H-pyrazol-4-yl)oxazol-5-yl)(4-(4-methylpyrazolo[1,5-a]pyridin-2-yl)-1,4,6,7-tetrahydro-5H-imidazo[4,5-c]pyridin-5-yl)methanone]
> 5 | Cc1cccn2nc([C@H]3c4nc[nH]c4CCN3C(=O)c3nnc(-c4cnn(C)c4)s3)cc12 [Example 2046, (R)-(5-(1-methyl-1H-pyrazol-4-yl)-1,3,4-thiadiazol-2-yl)(4-(4-methylpyrazolo[1,5-a]pyridin-2-yl)-1,4,6,7-tetrahydro-5H-imidazo[4,5-c]pyridin-5-yl)methanone]
0.5 to 1 | Cc1cccc2cc([C@@H]3c4nc[nH]c4CCN3c3nnc(-c4cccnc4F)o3)nn12 [Example 2274, (S)-2-(2-fluoropyridin-3-yl)-5-(4-(7-methylpyrazolo[1,5-a]pyridin-2-yl)-1,4,6,7-tetrahydro-5H-imidazo[4,5-c]pyridin-5-yl)-1,3,4-oxadiazole]
0.5 to 1 | FC(F)(F)c1nnc(N2CCc3[nH]cnc3[C@H]2c2cc3ccccn3n2)o1 [Example 1807, (S)-2-(4-(pyrazolo[1,5-a]pyridin-2-yl)-6,7-dihydro-1H-imidazo[4,5-c]pyridin-5(4H)-yl)-5-(trifluoromethyl)-1,3,4-oxadiazole]
> 5 | Cn1cc(-c2nnc(C(=O)N3CCc4[nH]cnc4[C@@H]3c3cc4ccccn4n3)s2)cn1 [Example 2044, (R)-(5-(1-methyl-1H-pyrazol-4-yl)-1,3,4-thiadiazol-2-yl)(4-(pyrazolo[1,5-a]pyridin-2-yl)-1,4,6,7-tetrahydro-5H-imidazo[4,5-c]pyridin-5-yl)methanone]
1 to 5 | O=C(c1nnc(-c2cnccn2)o1)N1CCc2[nH]cnc2[C@H]1c1cc2c(OC(F)F)cccn2n1 [Example 2448, (S)-(4-(4-(difluoromethoxy)pyrazolo[1,5-a]pyridin-2-yl)-6,7-dihydro-1H-imidazo[4,5-c]pyridin-5(4H)-yl)(5-(pyrazin-2-yl)-1,3,4-oxadiazol-2-yl)methanone]
> 5 | FC(F)(F)c1ccc(N2CCc3[nH]cnc3[C@@H]2c2cc3c(C4CC4)cccn3n2)nc1 [Example 2171, (R)-4-(4-cyclopropylpyrazolo[1,5-a]pyridin-2-yl)-5-(5-(trifluoromethyl)pyridin-2-yl)-4,5,6,7-tetrahydro-1H-imidazo[4,5-c]pyridine]
< 0.5 | CC(C)(F)c1ncc(C(=O)N2CCc3[nH]cnc3[C@H]2c2cc3c(C(F)(F)F)cccn3n2)o1 [Example 2144, (S)-(2-(2-fluoropropan-2-yl)oxazol-5-yl)(4-(4-(trifluoromethyl)pyrazolo[1,5-a]pyridin-2-yl)-1,4,6,7-tetrahydro-5H-imidazo[4,5-c]pyridin-5-yl)methanone]
> 5 | Cc1cccnc1-c1nnc(N2CCc3[nH]cnc3[C@@H]2c2cc3c(Cl)cccn3n2)o1 [Example 2286, (R)-2-(4-(4-chloropyrazolo[1,5-a]pyridin-2-yl)-1,4,6,7-tetrahydro-5H-imidazo[4,5-c]pyridin-5-yl)-5-(3-methylpyridin-2-yl)-1,3,4-oxadiazole]

Same assay, conditions: A375 cells expressing human R408W PAH; 24 hrs compound incubation; 13C-Tyrosine by LC-MS; average where tested multiple times; read-out: AC50

AC50 [µM] | Compound
0.5 to 1 | Cc1ccc2cc([C@@H]3c4nc[nH]c4CCN3C(=O)c3nnc(-c4ccccn4)o3)nn2c1 [Example 812, (S)-(4-(6-methylpyrazolo[1,5-a]pyridin-2-yl)-6,7-dihydro-1H-imidazo[4,5-c]pyridin-5(4H)-yl)(5-(pyridin-2-yl)-1,3,4-oxadiazol-2-yl)methanone]
> 5 | COc1ccc(-c2nnc(C(=O)N3CCc4[nH]cnc4[C@@H]3c3cc4cccc(Cl)n4n3)o2)nc1 [Example 1096, (R)-(4-(7-chloropyrazolo[1,5-a]pyridin-2-yl)-6,7-dihydro-1H-imidazo[4,5-c]pyridin-5(4H)-yl)(5-(5-methoxypyridin-2-yl)-1,3,4-oxadiazol-2-yl)methanone]
< 0.5 | Cn1cc(-c2nnc(C(=O)N3CCc4[nH]cnc4[C@H]3c3cc4c(C(F)F)cccn4n3)o2)cn1 [Example 1316, (S)-(4-(4-(difluoromethyl)pyrazolo[1,5-a]pyridin-2-yl)-6,7-dihydro-1H-imidazo[4,5-c]pyridin-5(4H)-yl)(5-(1-methyl-1H-pyrazol-4-yl)-1,3,4-oxadiazol-2-yl)methanone]
< 0.5 | O=C(c1nnc(-c2ncccn2)o1)N1CCc2[nH]cnc2[C@H]1c1cc2c(Cl)cccn2n1 [Example 1411, (S)-(4-(4-chloropyrazolo[1,5-a]pyridin-2-yl)-6,7-dihydro-1H-imidazo[4,5-c]pyridin-5(4H)-yl)(5-(pyrimidin-2-yl)-1,3,4-oxadiazol-2-yl)methanone]
0.5 to 1 | CC(C)(F)c1nc(C(F)F)c(C(=O)N2CCc3[nH]cnc3[C@@H]2c2cc3c(Cl)cccn3n2)o1 [Example 1229, (R)-(4-(4-chloropyrazolo[1,5-a]pyridin-2-yl)-6,7-dihydro-1H-imidazo[4,5-c]pyridin-5(4H)-yl)(4-(difluoromethyl)-2-(2-fluoropropan-2-yl)oxazol-5-yl)methanone]
0.5 to 1 | Cn1ncnc1C(=O)N1CCc2[nH]cnc2[C@H]1c1cc2cccc(C(F)(F)F)n2n1 [Example 1144, (S)-(1-methyl-1H-1,2,4-triazol-5-yl)(4-(7-(trifluoromethyl)pyrazolo[1,5-a]pyridin-2-yl)-6,7-dihydro-1H-imidazo[4,5-c]pyridin-5(4H)-yl)methanone]
> 5 | O=C(c1nnc(-c2cc(C(F)(F)F)ccn2)o1)N1CCc2[nH]cnc2[C@@H]1c1cc2ccccn2n1 [Example 668, (R)-(4-(pyrazolo[1,5-a]pyridin-2-yl)-6,7-dihydro-1H-imidazo[4,5-c]pyridin-5(4H)-yl)(5-(4-(trifluoromethyl)pyridin-2-yl)-1,3,4-oxadiazol-2-yl)methanone]
> 5 | COc1ccc(-c2nnc(C(=O)N3CCc4[nH]cnc4[C@@H]3c3cc4c(C)cccn4n3)o2)nc1 [Example 816, (R)-(5-(5-methoxypyridin-2-yl)-1,3,4-oxadiazol-2-yl)(4-(4-methylpyrazolo[1,5-a]pyridin-2-yl)-6,7-dihydro-1H-imidazo[4,5-c]pyridin-5(4H)-yl)methanone]
1 to 5 | O=C(c1oc(C2(O)CC2)nc1C(F)F)N1CCc2[nH]cnc2[C@@H]1c1cc2c(F)cccn2n1 [Example 1235, (R)-(4-(difluoromethyl)-2-(1-hydroxycyclopropyl)oxazol-5-yl)(4-(4-fluoropyrazolo[1,5-a]pyridin-2-yl)-6,7-dihydro-1H-imidazo[4,5-c]pyridin-5(4H)-yl)methanone]
< 0.5 | O=C(c1ccnn1C(F)(F)F)N1CCc2[nH]cnc2[C@H]1c1cc2ccccn2n1 [Example 716, (S)-(4-(pyrazolo[1,5-a]pyridin-2-yl)-6,7-dihydro-1H-imidazo[4,5-c]pyridin-5(4H)-yl)(1-(trifluoromethyl)-1H-pyrazol-5-yl)methanone]
